This is an account of results in ChEMBL document CHEMBL1123770, “Systematic synthesis and biological evaluation of alpha- and beta-D-lyxofuranosyl nucleosides of the five naturally occurring nucleic acid bases” (1987).

SMILES strings stand for the structures.

Assay [1] is filed under the species Mus musculus. Briefly: Number of mice normal, without lesion after HSV-1 infection observed from day 0 to day 3. The assay is classed as functional.
The nature of assay [2]: Inhibitory effect on 196 strain of Herper simplex virus-2 yield, in primary rabbit kidney cell culture 1 ug/mL concentration after 24 hours. Type of assay: functional, Oryctolagus cuniculus.
The species entered for assay [3] is Mus musculus. In words: Number of mice normal, without lesion after HSV-2 infection observed from day 12 to day 20. The assay is classed as functional.
Assay [4] is described as follows: Inhibitory effect on 196 strain of Herper simplex virus-2 yield, in primary rabbit kidney cell culture 0.04 ug/mL concentration after 48 hours. Type of assay: functional, Oryctolagus cuniculus.
For assay [5], the species on record is Mus musculus. In words: Number of mice normal, without lesion after HSV-2 infection observed from day 0 to day 3. Type of assay: functional.
The nature of assay [6]: Inhibitory effect on 196 strain of Herper simplex virus-2 yield, in primary rabbit kidney cell culture 0.1 ug/mL concentration after 24 hours. The assay is classed as functional, Oryctolagus cuniculus.
Assay [7] is filed under the species Mus musculus. In words: Number of mice normal, without lesion after HSV-1 infection observed from day 12 to day 20. The assay is classed as functional.
Assay [8] in a line: Inhibitory effect on KOS strain of Herper simplex virus-1 yield, in primary rabbit kidney cell culture 0.4 ug/mL concentration after 48 hours. Type of assay: functional, Oryctolagus cuniculus.
Assay [9] can be described thus: Inhibitory effect on 196 strain of Herper simplex virus-2 yield, in primary rabbit kidney cell culture 1 ug/mL concentration after 48 hours. The assay is classed as functional, Oryctolagus cuniculus.
The nature of assay [10]: Inhibitory effect on 196 strain of Herper simplex virus-2 yield, in primary rabbit kidney cell culture 0.4 ug/mL concentration after 48 hours. The assay is classed as functional, Oryctolagus cuniculus.
Assay [11] in a line: Inhibitory effect on KOS strain of Herper simplex virus-1 yield, in primary rabbit kidney cell culture 0.1 ug/mL concentration after 48 hours. Type of assay: functional, Oryctolagus cuniculus.
Assay [12] is described as follows: Inhibitory effect on KOS strain of Herper simplex virus-1 yield, in primary rabbit kidney cell culture 4 ug/mL concentration after 48 hours. Type of assay: functional, Oryctolagus cuniculus.
The species named for assay [13] is Mus musculus. Briefly: Survival rate at 20th day expressed as number of mice survived infected with HSV-1; out of 10. The assay is classed as functional.
Assay [14] is described as follows: Inhibitory effect on KOS strain of Herper simplex virus-1 yield, in primary rabbit kidney cell culture at 4 ug/mL concentration after 24 hours. The assay is classed as functional, Oryctolagus cuniculus.
Assay [15] in a line: Inhibitory effect on KOS strain of Herper simplex virus-1 yield, in primary rabbit kidney cell culture at 0.1 ug/mL concentration after 24 hours. The assay is classed as functional, Oryctolagus cuniculus.
Assay [16] can be described thus: Inhibitory effect on 196 strain of Herper simplex virus-2 yield, in primary rabbit kidney cell culture 0.1 ug/mL concentration after 48 hours. Type of assay: functional, Oryctolagus cuniculus.
The nature of assay [17]: Inhibitory effect on KOS strain of Herper simplex virus-1 yield, in primary rabbit kidney cell culture at 0.04 ug/mL concentration after 24 hours. The assay is classed as functional, Oryctolagus cuniculus.
Assay [18] can be described thus: Inhibitory effect on 196 strain of Herper simplex virus-2 yield, in primary rabbit kidney cell culture 4 ug/mL concentration after 24 hours. Type of assay: functional, Oryctolagus cuniculus.
Assay [19] in a line: Inhibitory effect on KOS strain of Herper simplex virus-1 yield, in primary rabbit kidney cell culture at 0.4 ug/mL concentration after 24 hours. The assay is classed as functional, Oryctolagus cuniculus.
Assay [20] is described as follows: Inhibitory effect on 196 strain of Herper simplex virus-2 yield, in primary rabbit kidney cell culture 0.04 ug/mL concentration after 24 hours. Type of assay: functional, Oryctolagus cuniculus.
Assay [21] can be described thus: Inhibitory effect on KOS strain of Herper simplex virus-1 yield, in primary rabbit kidney cell culture 1 ug/mL concentration after 48 hours. Type of assay: functional, Oryctolagus cuniculus.
Assay [22] in a line: Inhibitory effect on KOS strain of Herper simplex virus-1 yield, in primary rabbit kidney cell culture at 1 ug/mL concentration after 24 hours. Type of assay: functional, Oryctolagus cuniculus.
A short description of assay [23]: Inhibitory effect on 196 strain of Herper simplex virus-2 yield, in primary rabbit kidney cell culture 4 ug/mL concentration after 48 hours. Type of assay: functional, Oryctolagus cuniculus.
Assay [24] in a line: Inhibitory effect on KOS strain of Herper simplex virus-1 yield, in primary rabbit kidney cell culture 0.04 ug/mL concentration after 48 hours. Type of assay: functional, Oryctolagus cuniculus.
The species named for assay [25] is Mus musculus. In words: Survival rate at 20th day expressed as number of mice survived infected with HSV-2; out of 10. Type of assay: functional.
Assay [26] is described as follows: Inhibitory effect on 196 strain of Herper simplex virus-2 yield, in primary rabbit kidney cell culture 0.4 ug/mL concentration after 24 hours. The assay is classed as functional, Oryctolagus cuniculus.
Assay [27] can be described thus: Inhibitory effect on 196 strain of Herper simplex virus-2 yield, in primary rabbit kidney cell culture 40 ug/mL concentration after 48 hours. Type of assay: functional, Oryctolagus cuniculus.
For assay [28], the species on record is Mus musculus. In words: Number of mice dead, after HSV-2 infection observed from day 12 to day 20. Type of assay: functional.
Assay [29] in a line: Inhibitory effect on KOS strain of Herper simplex virus-1 yield, in primary rabbit kidney cell culture 10 ug/mL concentration after 48 hours. Type of assay: functional, Oryctolagus cuniculus.
The nature of assay [30]: Inhibitory effect on KOS strain of Herper simplex virus-1 yield, in primary rabbit kidney cell culture at 10 ug/mL concentration after 24 hours. The assay is classed as functional, Oryctolagus cuniculus.
Assay [31] in a line: Inhibitory effect on KOS strain of Herper simplex virus-1 yield, in primary rabbit kidney cell culture at 40 ug/mL concentration after 24 hours. Type of assay: functional, Oryctolagus cuniculus.
Assay [32] is described as follows: Inhibitory effect on KOS strain of Herper simplex virus-1 yield, in primary rabbit kidney cell culture 40 ug/mL concentration after 48 hours. The assay is classed as functional, Oryctolagus cuniculus.
For assay [33], the species on record is Mus musculus. Briefly: Number of mice with skin lesions plus paralysis, after HSV-1 infection observed from day 12 to day 20. The assay is classed as functional.
A short description of assay [34]: Inhibitory effect on 196 strain of Herper simplex virus-2 yield, in primary rabbit kidney cell culture 40 ug/mL concentration after 24 hours. The assay is classed as functional, Oryctolagus cuniculus.
The species entered for assay [35] is Mus musculus. Briefly: Number of mice dead, after HSV-1 infection observed from day 12 to day 20. The assay is classed as functional.
Assay [36] is described as follows: Inhibitory effect on 196 strain of Herper simplex virus-2 yield, in primary rabbit kidney cell culture 10 ug/mL concentration after 48 hours. The assay is classed as functional, Oryctolagus cuniculus.
Assay [37] is described as follows: Inhibitory effect on 196 strain of Herper simplex virus-2 yield, in primary rabbit kidney cell culture 10 ug/mL concentration after 24 hours. The assay is classed as functional, Oryctolagus cuniculus.

For `Nc1nc2c(ncn2COCCO)c(=O)[nH]1` [ACYCLOVIR], the No. of mice in assay [1] is reported as 10; in [3] it was 5; in assay [5], 10; in assay [7], 10. Further, the Virus yield in [2] is on record as 3.1 log pfu ml-1; in assay [4] it was 5.7 log pfu ml-1; in assay [6], 4.8 log pfu ml-1; in [8], 5 log pfu ml-1; in [9], 5.3 log pfu ml-1; in assay [10], 5 log pfu ml-1. In addition, the Virus yield in [11] is on record as 5.6 log pfu ml-1; in [12] it was 3.3 log pfu ml-1; in assay [14], 2 log pfu ml-1; in assay [15], 5.2 log pfu ml-1; in assay [16] it was 5.6 log pfu ml-1; in [17] it was 5.6 log pfu ml-1. Also, the Virus yield in assay [18] is on record as under 2 log pfu ml-1; in [19], 4.1 log pfu ml-1; in [20] it was 5.8 log pfu ml-1; in [21] it was 5.3 log pfu ml-1; in [22], 3.6 log pfu ml-1; in [23] it was 3.8 log pfu ml-1. The Virus yield is reported as 5.9 log pfu ml-1 in assay [24] and 4.1 log pfu ml-1 in [26]. For the same compound, the Survival rate in [13] amounted to 10; in assay [25], 5.

With `Nc1ncnc2c1ncn2[C@@H]1O[C@H](CO)[C@@H](O)[C@H]1O` [ADENOSINE], the Virus yield amounted to 4.3 log pfu ml-1 in [27]; 6.8 log pfu ml-1 in assay [29]; 6.8 log pfu ml-1 in [12]; 5.7 log pfu ml-1 in assay [30]; 3 log pfu ml-1 in assay [31]; 5.5 log pfu ml-1 in [32]. The Virus yield in assay [14] is recorded as 6.7 log pfu ml-1; in assay [34], under 1.6 log pfu ml-1; in assay [18] it was 5 log pfu ml-1; in assay [36] it was 5.2 log pfu ml-1; in [23], 5.7 log pfu ml-1; in assay [37], 4.7 log pfu ml-1. Further, the No. of mice in assay [1] stood at 10; in assay [3], 3; in assay [28], 7; in [5], 10; in assay [7], 3; in assay [33] it was 1. The No. of mice in assay [35] is on record as 6. For the same compound, the Survival rate came to 4 in assay [13] and 3 in assay [25].
